Laboratory results published in US5248221A, “Antifouling coating composition comprising lactone compounds, method for protecting aquatic structures, and articles protected against fouling organisms” (Rohm and Haas Company, priority 1992, dated 1993).
≈ marks a conversion by molar mass, not a printed value.

Assays:
[1] = system: cyprid larvae of the barnacle Balanus amphitrite; test: Settlement assay for cyprid-stage barnacle larvae (% settlement)
Description: All compounds were tested for their ability to inhibit settlement by cyprid larvae of the barnacle Balanus amphitrite . […] Controls consisted of barnacle larvae and filtered seawater added to the dishes or vials without test compound. Dishes were then incubated for 20-24 hrs at 28° C. with light for approximately 15 hours and in darkness for approximately 9 hours. The dishes or vials were then removed from the incubator, examined under a dissecting microscope to determine whether larvae were living or dead. Larvae were then killed by addition of several drops of 10% formalin solution. Settlement rate was quantified as number of larvae that had attached to the dish or vial surface, expressed as a percentage of total larvae in the dish or vial. Experiments were performed in duplicate.
A number of lactones were tested for control of barnacle settlement. All lactones were tested at a concentration of 3×10^-6 M in dishes containing seawater. The larvae were added and the test conducted as described above.
Five ml of each solution were added to duplicate dishes. The larvae were then added to the dishes and the test conducted as described above.
Aliquots of these solutions were taken and added to duplicate dishes. […] The larvae were then added to the dishes and the test conducted as described above.
A series of solutions of a-angelica lactone in seawater at concentrations ranging from 500 μg/ml to 5 ng/ml were prepared. Aliquots of these solutions were taken and added to duplicate dishes. […] The larvae were then added to the dishes and the test conducted as described above.
A solution of 2-coumaranone (25 μg in 50 ml of filtered, aged seawater) was prepared. The larvae were then added to the dishes and the test conducted as described above.
A series of solutions of γ-decalactone in seawater at concentrations ranging from 500 μg/ml to 5 pg/ml were prepared. Aliquots of these solutions were taken and added to duplicate dishes. […] The larvae were then added to the dishes and the test conducted as described above.
A series of solutions of γ-valerolactone in seawater at concentrations ranging from 500 μg/ml to 500 pg/ml were prepared. Aliquots of these solutions were taken and added to duplicate dishes. […] The larvae were then added to the dishes and the test conducted as described above.

[2] = system: nauplius stage larvae; test: whole plant or invertebrate; conditions: for LC50: Amphibalanus amphitrite, read-out: ED50 (half-maximal inhibition)
Description: Toxicity assays were conducted by adding nauplius stage larvae to 50×5 mm polystyrene Petri dishes or glass vials containing 5 ml of 100 kDa iltered seawater. […] Dishes or vials receiving no test compound served as controls. The dishes or vials were incubated at 28° C. with a 15:9 light:dark cycle. […] The number of living and dead larvae were then counted. Probit analysis was used to obtain concentrations corresponding to half-maximal inhibition (EC50 values).

[3] = Table 1, 3×10^-6 M in seawater, dishes, Control 35

O=C1Cc2ccccc2O1 [2-coumaranone]
% Settlement ([1]; Table 6 (Example 6), nominal 5 ng/ml, Control 58): 54% | % Settlement ([1]; Table 6 (Example 6), nominal 50 ng/ml, Control 58): 61% | % Settlement ([1]; Table 6 (Example 6), nominal 500 ng/ml, Control 58): 59% | % Settlement ([1]; Table 6 (Example 6), nominal 5 μg/ml, Control 58): 51% | % Settlement ([1]; Table 6 (Example 6), nominal 50 μg/ml, Control 58): 64% | % Settlement ([1]; Table 6 (Example 6), nominal 500 μg/ml, Control 58): 0%

C=C1C(=O)O[C@@H]2C[C@@]3(C)CCC[C@H](C)C3=C[C@H]12 [alantolactone]
ED50 (half-maximal inhibition) ([2]; glass): 0.5 µg/mL (≈ 2.15 µM)

CC1=CCC(=O)O1 [α-angelica lactone]
% Settlement ([1]; Table 4 (Example 4), 5 ng/ml, Control 62): 62% | % Settlement ([1]; Table 4 (Example 4), 50 ng/ml, Control 62): 65% | % Settlement ([1]; Table 4 (Example 4), 500 ng/ml, Control 62): 60% | % Settlement ([1]; Table 4 (Example 4), 5 μg/ml, Control 62): 54% | % Settlement ([1]; Table 4 (Example 4), 50 μg/ml, Control 62): 39% | % Settlement ([1]; Table 4 (Example 4), 500 μg/ml, Control 62): 0% | % Settlement ([1]; Table 5 (Example 5, second test), 5 ng/ml, Control 66): 41% | % Settlement ([1]; Table 5 (Example 5, second test), 50 ng/ml, Control 66): 53% | % Settlement ([1]; Table 5 (Example 5, second test), 500 ng/ml, Control 66): 33% | % Settlement ([1]; Table 5 (Example 5, second test), 5 μg/ml, Control 66): 33% | % Settlement ([1]; Table 5 (Example 5, second test), 50 μg/ml, Control 66): 3% | % Settlement ([1]; Table 5 (Example 5, second test), 500 μg/ml, Control 66): 0% | LC50 [2]: 70 µg/mL (≈ 714 µM)

C=C1CCOC1=O [α-methylene-γ-butyrolactone]
% Settlement ([1]; Table 2 (Example 2), 5 ng/ml, Control 62): 61% | % Settlement ([1]; Table 2 (Example 2), 50 ng/ml, Control 62): 62% | % Settlement ([1]; Table 2 (Example 2), 500 ng/ml, Control 62): 58% | % Settlement ([1]; Table 2 (Example 2), 5 μg/ml, Control 62): 36% | % Settlement ([1]; Table 2 (Example 2), 50 μg/ml, Control 62): 0% | % Settlement ([1]; Table 2 (Example 2), 500 μg/ml, Control 62): 0% | % Settlement ([1]; Table 3 (Example 3, second test), 50 ng/ml, Control 66): 49% | % Settlement ([1]; Table 3 (Example 3, second test), 500 ng/ml, Control 66): 53% | % Settlement ([1]; Table 3 (Example 3, second test), 5 μg/ml, Control 66): 47% | % Settlement ([1]; Table 3 (Example 3, second test), 50 μg/ml, Control 66): 29% | % Settlement ([1]; Table 3 (Example 3, second test), 500 μg/ml, Control 66): 5%

CC1=C2[C@H]3OC(=O)[C@@H](C)[C@@H]3CC[C@@]2(C)C=CC1=O [α-santonin]
LC50 [2]: 14 µg/mL (≈ 56.8 µM)

CCCCCCC1CCC(=O)O1 (stereo not drawn) [γ-decalactone]
% Settlement [1, 3]: 3% | % Settlement ([1]; Table 7 (Example 7), 5 pg/ml, Control 66): 45% | % Settlement ([1]; Table 7 (Example 7), 50 pg/ml, Control 66): 52% | % Settlement ([1]; Table 7 (Example 7), 500 pg/ml, Control 66): 44% | % Settlement ([1]; Table 7 (Example 7), 5 ng/ml, Control 66): 32% | % Settlement ([1]; Table 7 (Example 7), 50 ng/ml, Control 66): 25% | % Settlement ([1]; Table 7 (Example 7), 500 ng/ml, Control 66): 8% | % Settlement ([1]; Table 7 (Example 7), 5 μg/ml, Control 66): 25% | % Settlement ([1]; Table 7 (Example 7), 50 μg/ml, Control 66): 1% | % Settlement ([1]; Table 7 (Example 7), 500 μg/ml, Control 66): 0% | LC50 [2]: 0.004 µg/mL (≈ 0.0235 µM)

CCCCC1CCC(=O)O1 (stereo not drawn) [γ-octanolactone]
% Settlement [1, 3]: 39%

CC1CCC(=O)O1 (stereo not drawn) [γ-valerolactone]
% Settlement [1, 3]: 26% | % Settlement ([1]; Table 8 (Example 8), 500 pg/ml, Control 66): 55% | % Settlement ([1]; Table 8 (Example 8), 5 ng/ml, Control 66): 43% | % Settlement ([1]; Table 8 (Example 8), 50 ng/ml, Control 66): 42% | % Settlement ([1]; Table 8 (Example 8), 500 ng/ml, Control 66): 48% | % Settlement ([1]; Table 8 (Example 8), 5 μg/ml, Control 66): 42% | % Settlement ([1]; Table 8 (Example 8), 50 μg/ml, Control 66): 37% | % Settlement ([1]; Table 8 (Example 8), 500 μg/ml, Control 66): 52%

CCCCCCC1CCCC(=O)O1 (stereo not drawn) [δ-undecalactone, reference compound]
% Settlement [1, 3]: 40%

O=C1CCCCCO1 [ε-caprolactone, reference compound]
% Settlement [1, 3]: 41%
